Source: EP1641451B1, “METHOD FOR PHOTODYNAMIC INACTIVATION OF PATHOGENS USING ALA” (MACO PHARMA, priority 2003, dated 2005)

Assays:
Type in all cases: cell-based
Klebsiella pneumoniae = test: Bacterio-attenuation test in contaminated CPA, photodynamic treatment at 365 nm
Procedure: (§1) Les bactéries sont injectées dans les échantillons à une concentration finale de 1 bactérie pour 50 000 plaquettes. Les bactéries sont mises en culture dans un bouillon Thyoglycolate-Resazurine (ref: 42074, Biomérieux Marcy l'Etoile, France) (0,5 mL de suspension bactérienne en bouillon ou une colonie sur gélose dans 9 mL de bouillon). Elles sont incubées 24 h à 37°C pour qu'elles soient en phase de croissance lors de leur utilisation. Avant leur utilisation, le bouillon de culture est centrifugé à 2500 g pendant 10 min. à 21°C, le culot est repris dans du NaCl 0,9 % et celui-ci est lavé 3 fois à 2500 g pendant 10 min. à 21 °C.
(§2) Le titre bactérien de la suspension lavée et diluée est évalué par une lecture de densité optique à 630 nm. Une dilution de la suspension bactérienne est ensuite réalisée pour obtenir une concentration finale de 1 bactérie pour 50 000 plaquettes.
(§3) Pour réaliser les tests de bactério-atténuation, les CPA dilués sont aliquotés dans la solution SSP (MacoPharma, Tourcoing, France) pour obtenir une concentration finale en protéines de 10 g/L dans des poches en PVC. Puis 1 mL de suspension bactérienne est injecté. Le volume final contenu dans les poches est de 8 mL. Le tout est homogénéisé pour un meilleur contact entre les plaquettes et les bactéries.
(§4) L'illumination se fait à l'aide d'une lampe UVA comportant deux tubes (réf. VL-215BL, Vilber Lourmat, France) génératrice de rayons UV 365 nm et de lumière visible d'une intensité de 108 µW/cm^2 à une distance de 1 m de l'échantillon. La lampe est disposée à une distance de 13 cm des poches à traitées. L'illumination se fait à 4°C. La lampe délivre une dose de 23 J/cm^2 en 1 h.
(§5) Après illumination, une numération bactérienne est réalisée pour mesurer la diminution du tire bactérien dans les poches traitées. Pour cela, 1 mL de la dilution la plus appropriée est étalée sur des géloses nutritives Trypcase-soja (ref : 43011, boîtes de 90 mm de diamètre, Biomérieux, Marcy l'Etoile, France). Les géloses sont ensuite incubées 24 h à 37 °C pour pouvoir effectuer un comptage. Les résultats sont exprimés en ufc/mL.
Des tests de bactério-atténuation ont été effectués sur Klebsiella pneumoniae. Les tests sont réalisés sur des CPA ajustés à 10 g/L de protéines. Le nombre de plaquettes par poche de 8 mL est de 10,5.10^9.
Les poches sont incubées 1h à température ambiante puis illuminées par irradiation à 365 nm (Fig. 4 et 5).

plaquettes [1] = test: Platelet functionality: collagen aggregation test (thrombo-aggregometer, turbidimetry); settings: for % d'aggrégation: CPA 10 g/L proteins
Procedure: (§6) Dans cet exemple, deux tests ont été effectués afin d'évaluer la fonctionnalité des plaquettes en présence de différentes concentrations d'ALA après illumination à l'aide des lampes UVA (365 nm).
Le second test est un test d'agrégation au collagène. Ce test est réalisé à l'aide d'un thrombo-agrégomètre (SEFAM, Regulest, Fleurange, France). L'activation plaquettaire par un agoniste (collagène) est estimée in vitro par turbidimétrie, en enregistrant en continu à 37°C et sous agitation, la transmission d'un faisceau de lumière à travers la suspension plaquettaire. Le regroupement des plaquettes en amas de plus en plus volumineux s'accompagne d'un éclaircissement progressif du milieu. Les résultats sont rendus en pourcentage d'agrégation en fonction du temps, le 100% d'agrégation correspondant au plasma pauvre en plaquettes et le 0% d'agrégation correspondant à l'échantillon avant l'ajout de l'agoniste. L'enregistrement de la transmission lumineuse est déclenché au moment de l'ajout d'un faible volume de l'agoniste à l'échantillon. Ainsi, nous pouvons visualiser le temps de latence, le changement de forme des plaquettes puis l'agrégation qui peut être stable ou réversible.
(§7) Ces deux tests ont été réalisés sur un CPA ajusté à 10 g/L de protéines en présence de concentration croissante d'ALA après 1 h30 d'illumination à 365 nm.
(§8) Le même test a été réalisé sans illumination (1 h30 d'agitation douce à l'obscurité)
(§9) Un test d'agrégation et une inspection visuelle du tournoiement ont été réalisées sur un CPA ajusté à 10 g/L de protéines en présence de PpX sel disodique dans du NaOH 1 N 0,1 % (après 30 minutes d'illumination à 365 nm). Le nombre de plaquettes par poche de 8 ml est de 7,6.10^9.

plaquettes [2] = test: Platelet functionality: visual inspection of swirling (tournoiement) of the CPA; settings: ALA 4 mM; CPA 10 g/L proteins; after 1 h30 illumination at 365 nm
Text: as §6
Le premier test est la visualisation du tournoiement ou « swirling », c'est-à-dire l'inspection visuelle du CPA à travers une source lumineuse (phénomène lié à la présence de formes discoïdes dans la suspension plaquettaire).
as §7, §8, §9

Escherichia coli = test: Bacterio-attenuation test in contaminated CPA, photodynamic treatment at 365 nm
Procedure: as §1, §2, §3, §4, §5
Des tests de bactério-atténuation ont été effectués sur E. coli. Les tests sont réalisés sur des CPA ajustés à 10 g/L de protéines. Le nombre de plaquettes par poche de 8 ml est de 4,7 10^9.
Les poches sont incubées 1 h à 37°C avant d'être irradiées à 365 nm (Fig. 6).
Sans incubation, les résultats sont les suivants (Fig. 7) : […]

NCC(=O)CCC(=O)O [ALA, acide 5-aminolévulinique]
titre bactérien Klebsiella (Klebsiella pneumoniae; ALA 1 mM, Incub. 1 h at room temperature): 187 10^-2 ufc/ml
titre bactérien Klebsiella (Klebsiella pneumoniae; ALA 1 mM, Incub. 1 h then Irr. 1h30 at 365 nm): 5 10^-2 ufc/ml
titre bactérien Klebsiella (Klebsiella pneumoniae; ALA 1 mM, Incub. 1 h then Irr. 1 h at 365 nm): 14 10^-2 ufc/ml
titre bactérien Klebsiella (Klebsiella pneumoniae; ALA 1 mM, T0, CPA 10 g/L proteins): 201 10^-2 ufc/ml
titre bactérien Klebsiella (Klebsiella pneumoniae; ALA 2 mM, Incub 1 h at room temperature): 163 10^-2 ufc/ml
titre bactérien Klebsiella (Klebsiella pneumoniae; ALA 2 mM, Incub 1 h then Irr 1 h30 at 365 nm): 1 10^-2 ufc/ml
titre bactérien Klebsiella (Klebsiella pneumoniae; ALA 2 mM, Incub 1 h then Irr. 1 h at 365 nm): 9 10^-2 ufc/ml
titre bactérien Klebsiella (Klebsiella pneumoniae; ALA 2 mM, T0, CPA 10 g/L proteins): 159 10^-2 ufc/ml
titre bactérien Klebsiella (Klebsiella pneumoniae; ALA 3 mM, Incub 1 h at room temperature): 168 10^-2 ufc/ml
titre bactérien Klebsiella (Klebsiella pneumoniae; ALA 3 mM, Incub 1 h then Irr 1 h30 at 365 nm): 1 10^-2 ufc/ml
titre bactérien Klebsiella (Klebsiella pneumoniae; ALA 3 mM, Incub 1 h then Irr. 1 h at 365 nm): 8 10^-2 ufc/ml
titre bactérien Klebsiella (Klebsiella pneumoniae; ALA 3 mM, T0, CPA 10 g/L proteins): 179 10^-2 ufc/ml
titre bactérien Klebsiella (Klebsiella pneumoniae; ALA 4 mM, Incub 1h at room temperature): 192 10^-2 ufc/ml
titre bactérien Klebsiella (Klebsiella pneumoniae; ALA 4 mM, Incub 1h then Irr 1h30 at 365 nm): 1 10^-2 ufc/ml
titre bactérien Klebsiella (Klebsiella pneumoniae; ALA 4 mM, Incub 1h then Irr. 1h at 365 nm): 6 10^-2 ufc/ml
titre bactérien Klebsiella (Klebsiella pneumoniae; ALA 4 mM, T0, CPA 10 g/L proteins): 183 10^-2 ufc/ml
titre bactérien Klebsiella (Klebsiella pneumoniae; ALA 5 mM, Incub. 1h at room temperature): 175 10^-2 ufc/ml
titre bactérien Klebsiella (Klebsiella pneumoniae; ALA 5 mM, Incub. 1h then 'Irr 1h 1h30' at 365 nm): 0 10^-2 ufc/ml
titre bactérien Klebsiella (Klebsiella pneumoniae; ALA 5 mM, Incub. 1h then 'Irr.' at 365 nm): 4 10^-2 ufc/ml
titre bactérien Klebsiella (Klebsiella pneumoniae; ALA 5 mM, T0, CPA 10 g/L proteins): 178 10^-2 ufc/ml
inactivation de K. pneumoniae (Klebsiella pneumoniae; CPA irradiated 1h and 1 h30 at 365 nm with ALA 1-5 mM, no significant difference between concentrations): obtenue
% d'aggrégation (plaquettes [1]; ALA 1 mM, after 1 h30 illumination at 365 nm, collagen): 80%
% d'aggrégation (plaquettes [1]; ALA 1 mM, no illumination, 1 h30 in the dark, collagen): 84%
% d'aggrégation (plaquettes [1]; ALA 2 mM, after 1 h30 illumination at 365 nm, collagen): 69%
% d'aggrégation (plaquettes [1]; ALA 2 mM, no illumination, 1 h30 in the dark, collagen): 84%
% d'aggrégation (plaquettes [1]; ALA 3 mM, after 1 h30 illumination at 365 nm, collagen): 76%
% d'aggrégation (plaquettes [1]; ALA 3 mM, no illumination, 1 h30 in the dark, collagen): 82%
% d'aggrégation (plaquettes [1]; ALA 4 mM, after 1 h30 illumination at 365 nm, collagen): 53%
% d'aggrégation (plaquettes [1]; ALA 4 mM, no illumination, 1 h30 in the dark, collagen): 76%
% d'aggrégation (plaquettes [1]; ALA 5 mM, after 1 h30 illumination at 365 nm, collagen): 26%
% d'aggrégation (plaquettes [1]; ALA 5 mM, no illumination, 1 h30 in the dark, collagen): 78%
fonctionnalité des plaquettes (plaquettes [1]; illumination of CPA with too high a concentration of ALA): semble faire perdre de leur fonctionnalité aux plaquettes
Swirling (plaquettes [2]): Faible+
titre bactérien E. Coli (Escherichia coli; ALA 5 mM, Incub 1h at 37°C): 231 10^-2 ufc/ml
titre bactérien E. Coli (Escherichia coli; ALA 5 mM, Incub 1h at 37°C then Irr 1h30 at 365 nm): 1 10^-2 ufc/ml
titre bactérien E. Coli (Escherichia coli; ALA 5 mM, Incub 1h at 37°C then Irr. 1h at 365 nm): 17 10^-2 ufc/ml
titre bactérien E. Coli (Escherichia coli; ALA 5 mM, T0, CPA 10 g/L proteins, series with incubation): 172 10^-2 ufc/ml
titre bactérien E. Coli (Escherichia coli; ALA 5 mM, T0, without incubation): 183 10^-2 ufc/ml
titre bactérien E. Coli (Escherichia coli; ALA 5 mM, without incubation, Irr 1 h30 at 365 nm): 2 10^-2 ufc/ml
titre bactérien E. Coli (Escherichia coli; ALA 5 mM, without incubation, Irr. 1h at 365 nm): 48 10^-2 ufc/ml
inactivation de E.coli (Escherichia coli; ALA (5 mM), even without incubation, irradiation at 365 nm): efficace
inactivation de E.coli (Escherichia coli; CPA irradiated 1 h and 1 h30 at 365 nm with ALA (5 mM), after 1 h incubation at 37°C): obtenue

protoporphyrine IX [PpIX]
inactivation de K. pneumoniae (Klebsiella pneumoniae; PpIX 10µM, same conditions (incubation 1h, irradiation 1h and 1h30 at 365 nm)): ne permet pas l'inactivation
titre bactérien Klebsiella (Klebsiella pneumoniae; PpIX 10 µM, Incub 1h at room temperature): 162 10^-2 ufc/ml
titre bactérien Klebsiella (Klebsiella pneumoniae; PpIX 10 µM, Incub 1h then Irr 1h30 at 365 nm): 203 10^-2 ufc/ml
titre bactérien Klebsiella (Klebsiella pneumoniae; PpIX 10 µM, Incub 1h then Irr. 1h at 365 nm): 178 10^-2 ufc/ml
titre bactérien Klebsiella (Klebsiella pneumoniae; PpIX 10 µM, T0, CPA 10 g/L proteins): 181 10^-2 ufc/ml
% d'aggrégation (plaquettes [1]; PpIX 1 µM, after 30 minutes illumination at 365 nm): 53%
% d'aggrégation (plaquettes [1]; PpIX 5µM, after 30 minutes illumination at 365 nm): 16%
% d'aggrégation (plaquettes [1]; PpIX 10 µM, after 30 minutes illumination at 365 nm): 16%
% d'aggrégation (plaquettes [1]; PpIX 20 µM, after 30 minutes illumination at 365 nm): 15%
inactivation de E.coli (Escherichia coli; PpIX 10 µM, irradiation at 365 nm): inefficace
titre bactérien E. Coli (Escherichia coli; PpIX 10 µm, T0, without incubation): 166 10^-2 ufc/ml
titre bactérien E. Coli (Escherichia coli; PpIX 10 µm, without incubation, Irr 1 h30 at 365 nm): 108 10^-2 ufc/ml
titre bactérien E. Coli (Escherichia coli; PpIX 10 µm, without incubation, Irr. 1h at 365 nm): 171 10^-2 ufc/ml
